Where two headings read alike, the source gives them in different places.
Assays:
[1] = molecular target: T1, bovine serum albumin (BSA) (Bos taurus, UniProt P02769); test: NP TLC on plates impregnated with bovine serum albumin; assay type: binding; conditions: Table S3, NP plate impregnated with 2 mg/mL BSA; pH 7.4 mobile phase
T1 construct: purchased Sigma Aldrich
Text: (§1) Chromatographic descriptors were obtained in experiments, thin layer chromatography in normal (NP TLC) and reversed mode (RP TLC). The stationary phase was modified with bovine serum albumin (BSA). TLC was the source of retention factor (Rf) values, denoted in statistical models as NP and RP.
(§2) For TLC chromatography, glass plates 20 × 20 cm from Merck, covered with silica gel with the addition of a fluorescent indicator, were used. Normal phase (NP) plates were used with standard Merck TLC Silica gel 60 F254 plates, while in reverse phase (RP) silanized plates RP-2: Merck TLC Silica gel 60 RP-2 F254 were used.
(§3) The stationary phase of the plates, both NP and RP, was modified with an aqueous solution of bovine serum albumin purchased from Sigma Aldrich (bovine serum albumin, lyophilized powder).
(§4) The impregnation of the plates was carried out with a 2 mg/mL solution applied to the surface using a Desaga SG 1 hand sprayer; the plates were then air dried. […] Normal and reversed phase thin layer chromatography (NP TLC and RP TLC respectively) was performed using silica-gel-coated glass plates. Half of them were covered with 2 mg/mL bovine serum albumin solution and half remained pure.
(§5) The mobility of the compounds was also determined on the plates with no protein as a modifier. […] The acetate buffer (20 mM) was prepared by dissolving 1.54 g of ammonium acetate in 1 L of distilled water. The pH was then adjusted with a concentrated ammonia solution using a pH meter. The plates were developed in standard, vertical chromatographic chambers, each time using 100 mL of the mobile phase, after the chamber was previously saturated with solvent vapors for approximately 1 h.
(§6) The unfolded-protein-impregnated plates and the control plates were scanned with a Desaga CD 60 densitometer. The values of the delay factor (Rf) were collected, i.e., the ratio of the distance traveled by the substance to be analyzed to the distance traveled through the front of the mobile phase. […] The experiment was repeated (for both BSA-coated and control plates) and the Rf values pooled are the mean of both series of experiments.

[2] = molecular target: T1, bovine serum albumin (BSA); test: RP TLC on plates impregnated with bovine serum albumin; assay type: binding; conditions: Table S4, RP plate impregnated with 2 mg/mL BSA; pH 7.4 mobile phase
Text: as §1, §2, §3, §4, §5, §6

[3] = NP TLC on non-impregnated control plates; assay type: physicochemical; conditions: Table S3, non-impregnated NP plate; acetonitrile/acetate buffer pH 7.4/methanol 60:20:20
[4] = RP TLC on non-impregnated control plates; assay type: physicochemical; conditions: Table S4, non-impregnated RP plate; acetonitrile/acetate buffer pH 7.4/methanol 60:20:20
Experimental: as §2
Normal and reversed phase thin layer chromatography (NP TLC and RP TLC respectively) was performed using silica-gel-coated glass plates. Half of them were covered with 2 mg/mL bovine serum albumin solution and half remained pure.
as §5, §6

[5] = HPLC on immobilized artificial membrane column (HPLCIAM); assay type: physicochemical; conditions: for log k IAM: Table S5, IAM column, pH 7.4; for k IAM: Table S5, retention factor, IAM column, phosphate buffer pH 7.4/acetonitrile 80:20
Experimental: High performance liquid chromatography was performed using immobilized human serum albumin column (HPLCHSA) and immobilized artificial membrane (HPLCIAM). HPLC was the source of the log k values (logarithm of retention factor), log kHSA and log kIAM.
The second experiment was performed using an immobilized artificial membrane (IAM) column. The assay was also performed on a Perkin Elmer Series 200 instrument connected to a UV-VIS spectrometer as the detector. The analytical wavelength was the same for all compounds, at 210 nm. […] The mobile phase was a mixture of 10 mM phosphate buffer pH 7.4 and acetonitrile in the ratio 80:20 (v/v). The phosphate buffer was obtained by dissolving the finished tablet in the appropriate amount of distilled water (1 tablet per 200 mL). In this case, it was not necessary to adjust the pH of the buffer using a pH meter.
The phase flow through the system was set to 0.5 mL/min as recommended by the column manufacturer. The solutions were delivered to the column using an autosampler syringe, the injection size was 10 µL.
The experiment was then repeated and the collected retention rates were the mean values of both series.

[6] = molecular target: T2, human serum albumin (HSA) (Homo sapiens, UniProt P02768); conditions: for log k HSA: human, immobilized hsa column
T2 sequence (P02768 25-609): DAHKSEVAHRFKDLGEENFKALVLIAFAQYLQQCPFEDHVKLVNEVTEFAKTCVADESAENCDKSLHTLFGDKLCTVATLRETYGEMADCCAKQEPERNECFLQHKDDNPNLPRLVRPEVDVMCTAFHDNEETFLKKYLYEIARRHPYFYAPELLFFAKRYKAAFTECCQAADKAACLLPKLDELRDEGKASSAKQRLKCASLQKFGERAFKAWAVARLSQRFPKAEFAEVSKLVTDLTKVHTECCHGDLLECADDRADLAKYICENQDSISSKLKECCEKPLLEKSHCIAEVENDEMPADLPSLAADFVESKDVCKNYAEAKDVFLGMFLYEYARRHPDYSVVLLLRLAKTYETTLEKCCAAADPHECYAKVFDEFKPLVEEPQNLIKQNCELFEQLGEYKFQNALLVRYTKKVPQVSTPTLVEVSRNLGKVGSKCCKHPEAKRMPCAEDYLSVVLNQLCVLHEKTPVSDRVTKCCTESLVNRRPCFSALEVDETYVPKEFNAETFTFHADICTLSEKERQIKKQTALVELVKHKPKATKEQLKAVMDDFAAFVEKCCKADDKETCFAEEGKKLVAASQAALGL

[7] = molecular target: T2, human serum albumin (HSA); test: in vitro; conditions: immobilized hsa column, pH 7.4
[8] = test system: plasma protein; conditions: ref DrugBank [7], cited from earlier work
[9] = source not stated, cited from earlier work
[10] = Milk-to-plasma (M/P) drug concentration ratio obtained in vivo, from literature; parameters: species or system human; conditions: Table S1, scale of drug penetration into milk 1-4
[11] = Table S1, milk/plasma drug concentration ratio, in vivo; cited from earlier work
[12] = Table S1, coded 1/0; ref DrugBank [7]; cited from earlier work
[13] = Table S1, plasma protein binding given as fraction
[14] = Table S5, retention factor, HSA column, pH 7.4, 25 degrees Celsius

T1 sequence (P02769 25-607): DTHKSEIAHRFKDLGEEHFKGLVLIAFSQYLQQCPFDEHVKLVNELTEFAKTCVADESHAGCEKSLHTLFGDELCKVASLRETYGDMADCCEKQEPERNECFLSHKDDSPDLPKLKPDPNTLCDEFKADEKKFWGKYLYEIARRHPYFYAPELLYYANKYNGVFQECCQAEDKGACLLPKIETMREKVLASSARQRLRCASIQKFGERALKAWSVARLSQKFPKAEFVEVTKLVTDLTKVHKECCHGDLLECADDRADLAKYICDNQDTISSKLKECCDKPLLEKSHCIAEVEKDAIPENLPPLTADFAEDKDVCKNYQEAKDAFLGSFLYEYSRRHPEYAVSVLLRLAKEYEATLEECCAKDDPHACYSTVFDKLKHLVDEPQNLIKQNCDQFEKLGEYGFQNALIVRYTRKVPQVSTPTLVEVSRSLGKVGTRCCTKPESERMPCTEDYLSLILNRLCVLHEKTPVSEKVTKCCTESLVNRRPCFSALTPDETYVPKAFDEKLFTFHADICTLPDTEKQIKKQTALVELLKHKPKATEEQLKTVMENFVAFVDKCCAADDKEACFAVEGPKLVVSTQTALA

| Compound | NP (Rf, BSA-impregnated NP plate) [1] | RP (Rf, BSA-impregnated RP plate) [2] | CNP (Rf, control NP plate) [3] | CRP (Rf, control RP plate) [4] | log k IAM [5] | k IAM [5] | k HSA ([6]; pH 7.4) | chromatographic logD [7] | PB [8, 13] | BB vivo ([9]; Table S1) | k HSA [6, 14] | M/P code [10] | M/P [11] | CNS+/- [12] | PB ([8]; Table S6, external group (n = 38), given as fraction) | BB vivo ([9]; Table S6, external group) | log k HSA ([6]; pH 7.4) |
| --- | --- | --- | --- | --- | --- | --- | --- | --- | --- | --- | --- | --- | --- | --- | --- | --- | --- |
| CC(C)C[C@H]1C(=O)N2CCC[C@H]2[C@]2(O)O[C@](NC(=O)[C@@H]3C=C4c5cccc6[nH]c(Br)c(c56)C[C@H]4N(C)C3)(C(C)C)C(=O)N12 [bromocriptine] | 0.96 | 0.70 | 0.95 | 0.69 | 1.10 | 12.69 | 8.09 | 0.91 | 0.93 | -1.100 |  |  |  |  |  |  |  |
| O=C1CC2(CCCC2)CC(=O)N1CCCCN1CCN(c2ncccn2)CC1 [buspirone] |  |  |  |  | 0.84 | 7.00 |  |  |  | 0.480 |  |  |  |  |  |  |  |
| CN(C)CCCN1c2ccccc2Sc2ccc(Cl)cc21 [chlorpromazine] | 0.43 | 0.50 | 0.43 | 0.49 | 1.77 | 58.85 |  | 1.12 | 0.9 | 0.950 | 13.33 |  |  |  |  |  |  |
| CCOC(=O)[C@H](CCc1ccccc1)N[C@@H](C)C(=O)N1CCC[C@H]1C(=O)O [enalapril] | 0.33 | 0.58 | 0.33 | 0.60 | -1.29 | 0.05 |  | -0.47 | 0.55 |  | 0.34 | 1 (Code 1 corresponds to drugs with an M/P value <0.40—completely safe) | 0.02 | 0 |  |  |  |
| CCO [ethanol] |  |  |  |  |  |  |  |  |  |  |  |  |  |  | 0.00 | -0.16 |  |
| OCCN1CCN(CCC=C2c3ccccc3Sc3ccc(C(F)(F)F)cc32)CC1 [flupenthixol] | 0.52 | 0.66 | 0.51 | 0.66 | 1.71 | 51.21 |  | 1.19 | 0.95 |  | 15.36 | 3 (3 range 0.81–1.20—possibly over the safety limit) | 1.15 | 1 |  |  |  |
| OCCOCCN1CCN(C(c2ccccc2)c2ccc(Cl)cc2)CC1 (stereo not drawn) [hydroxyzine] | 0.55 |  | 0.55 |  | 1.14 | 13.82 |  | 0.57 | 0.93 | 0.285 | 3.69 |  |  | 1 |  |  |  |
| COc1ccc2c(c1)c(CC(=O)O)c(C)n2C(=O)c1ccc(Cl)cc1 [indomethacin] |  |  |  |  | 0.03 | 1.08 |  |  | 0.97 | -1.260 |  |  |  |  |  |  |  |
| Nc1nnc(-c2cccc(Cl)c2Cl)c(N)n1 [lamotrigine] |  |  | 0.89 | 0.87 | -0.15 | 0.71 |  |  | 0.55 | 0.480 |  |  |  |  |  |  |  |
| O=C1Nc2ccc(Cl)cc2C(c2ccccc2Cl)=NC1O (stereo not drawn) [lorazepam] |  |  |  |  | 0.96 | 9.04 | 2.21 |  | 0.87 | 0.440 |  |  |  |  |  |  |  |
| C[C@](N)(Cc1ccc(O)c(O)c1)C(=O)O [methyldopa] | 0.37 | 0.86 | 0.38 | 0.85 | -1.02 | 0.10 |  | -0.44 | 0.2 |  | 0.36 | 1 (Code 1 corresponds to drugs with an M/P value <0.40—completely safe) | 0.265 | 0 |  |  |  |
| CCCN1C[C@H](CSC)C[C@@H]2c3cccc4[nH]cc(c34)C[C@H]21 [pergolide] | 0.47 | 0.53 | 0.48 | 0.55 |  |  |  |  | 0.9 | 0.300 | 0.07 |  |  | 1 |  |  | -1.15 |
| CN(C)CCCN1c2ccccc2Sc2ccccc21 [promazine] | 0.37 | 0.51 | 0.39 | 0.51 | -1.02 | 0.10 |  |  | 0.94 | 0.880 | 8.9 |  |  | 1 |  |  | 0.95 |
| CN(C)CCc1c[nH]c2ccc(Cn3cncn3)cc12 [rizatriptan] | 0.20 |  | 0.20 |  | 0.40 | 2.53 |  |  |  | 0.780 | 2.06 |  |  | 1 |  |  | 0.31 |
| Cn1c(=O)c2[nH]cnc2n(C)c1=O [theophylline] |  |  |  |  | -0.94 | 0.12 |  |  |  | -0.341 |  |  |  |  |  |  |  |
| CSc1ccc2c(c1)N(CCC1CCCCN1C)c1ccccc1S2 (stereo not drawn) [thioridazine] | 0.43 | 0.40 | 0.47 | 0.40 | 1.68 | 47.61 |  |  |  | 0.285 | 18.57 |  |  |  |  |  | 1.27 |
| O=c1n(CCCN2CCN(c3cccc(Cl)c3)CC2)nc2ccccn12 [trazodone] | 0.72 | 0.74 | 0.71 | 0.76 | 0.97 | 9.30 |  | 0.35 | 0.92 |  | 2.22 | 2 (2 corresponds to the range of 0.40–0.80—at the safety limit) | 0.53 | 1 |  |  |  |
| CCCC(CCC)C(=O)O [valproic acid] | 0.67 | 0.04 | 0.69 | 0.04 | -1.09 | 0.08 |  | 0.65 | 0.85 |  | 4.46 | 1 (Code 1 corresponds to drugs with an M/P value <0.40—completely safe) | 0.05 | 1 |  |  |  |
| Cc1ccc(-c2nc3ccc(C)cn3c2CC(=O)N(C)C)cc1 [zolpidem] |  |  |  |  | 0.42 | 2.60 | 1.77 |  |  | -0.480 |  |  |  |  |  |  |  |
